Results: patent US20250186456A1, “PYRIMIDINE-FUSED CYCLIC COMPOUND AND PREPARATION METHOD AND USE THEREOF” (Genfleet Therapeutics (Shanghai) Inc., priority 2021, published 2025)
Where two headings read alike, the source gives them in different places.

Columns and labels:
Type in all cases: cell-based, human
[1] = test system: p-ERK in AGS cells (KRAS G12D mutation); assay: Cell p-ERK assay (HTRF, Advance ERK phospho-T202/Y204 kit); conditions: AGS cells, 3 hours incubation with compound, HTRF, read-out: AGS p-ERK IC50
In short: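 Phospho-ERK (T202/Y204) measured by HTRF in lysates of human gastric AGS cells carrying KRAS G12D, after 3 h compound exposure at 0.1% DMSO over a 3.16-fold series. Percent inhibition relative to DMSO control and lysis-only blank; four-parameter curve fitting gave IC50.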

[2] = test system: AsPC-1 cells (KRAS G12D mutation); assay: Cell proliferation inhibition assay, 3D, CellTiter-Glo 3D, AsPC-1; conditions: AsPC-1 3D sphere model, 5 days incubation
In short: (§1)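 Spheroids (800 AsPC-1 or 400 AGS cells/well; RPMI-1640 or F-12K with 10% FBS) formed overnight, then were dosed on day 2 with a 3.16-fold series at 0.1% DMSO. After 5 days, viability was read by CellTiter-Glo 3D luminescence, and IC50 came from four-parameter fits of inhibition versus DMSO control and medium blank.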

AGS cells (KRAS G12D) = assay: Cell proliferation inhibition assay, 3D, CellTiter-Glo 3D, AGS; conditions: AGS 3D sphere model, 5 days incubation
In short: as §1

SMILES	IC50 ([1]; Homo sapiens) [nM]	IC50 ([2]; Homo sapiens, ASPC1, 120 h) [nM]	IC50 (AGS cells (KRAS G12D); Homo sapiens, 120 h) [nM]	IC50 [1] [nM]	IC50 [2] [nM]	IC50 (AGS cells (KRAS G12D)) [nM]
C#Cc1c(F)ccc2cccc(-c3nc4c5c(nc(OCC67CCCN6CCC7=C(F)F)nc5c3F)N3C[C@H]5CC[C@H](N5)[C@H]3[C@H](C)O4)c12 (stereo partly drawn) [Example Z612, (5S,5aS,6S,9R)-12-((1-(difluoromethylene)tetrahydro-1H-pyrrolizin-7a (5H)-yl)methoxy)-2-(8-ethynyl-7-fluoronaphthalen-1-yl)-1-fluoro-5-methyl-5a,6,7,8,9,10-hexahydro-5H-4-oxa-3,10a, 11,13,14-pentaaza-6,9-methanonaphtho[1,8-ab]heptalene]	99.3	124	65.4	–	–	–
C#Cc1c(F)ccc2cccc(-c3nc4c5c(nc(OCC67CCCN6[C@@H]6C[C@@H]6C7)nc5c3F)N3C[C@H]5CC[C@H](N5)[C@H]3[C@H](C)O4)c12 (stereo partly drawn) [Example Z624, (5S,5aS,6S,9R)-2-(8-ethynyl-7-fluoronaphthalen-1-yl)-1-fluoro-12-(((1aR,6aR)-hexahydrocyclopropa[b]pyrrolizin-5a (3H)-yl)methoxy)-5-methyl-5a,6,7,8,9,10-hexahydro-5H-4-oxa-3,10a, 11, 13, 14-pentaaza-6,9-methanonaphtho[1,8-ab]heptalene]	47.3	194	88.2	–	–	–
C#Cc1c(F)ccc2cccc(-c3nc4c5c(nc(OCC67CCCN6[C@H]6C[C@H]6C7)nc5c3F)N3C[C@H]5CC[C@H](N5)[C@H]3[C@H](C)O4)c12 (stereo partly drawn) [Example Z625, (5S,5aS,6S,9R)-2-(8-Ethynyl-7-Fluoronaphthalen-1-Yl)-1-Fluoro-12-(((1aS,6aS)-Hexahydrocyclopropa[b]Pyrrolizin-Sa (3H)-Yl)Methoxy)-5-Methyl-5a,6,7,8,9,10-Hexahydro-5H-4-Oxa-3,10a,11,13,14-Pentaaza-6,9-Methanonaphtho[1,8-Ab]Heptalene]	–	–	–	81.9	405	107
C#Cc1c(F)ccc2cccc(-c3nc4c5c(nc(OCC67CC8(CC8)CN6CC6(CC6)C7)nc5c3F)N3C[C@H]5CC[C@H](N5)[C@H]3[C@H](C)O4)c12 [Example Z628]	45.5	144	40	–	–	–
C#Cc1c(F)ccc2cccc(-c3nc4c5c(nc(OCC67CC(=C)CN6CC(=C)C7)nc5c3F)N3C[C@H]5CC[C@H](N5)[C@H]3CCO4)c12 [Example Z629]	50	167	51.7	–	–	–
C#Cc1c(F)ccc2cccc(-c3nc4c5c(nc(OCC67CCCN6C6(CC6)CC7)nc5c3F)N3C[C@H]5CC[C@H](N5)[C@H]3[C@H](C)O4)c12 (stereo partly drawn) [Example Z631, (5S,5aS,6S,9R)-2-(8-Ethynyl-7-Fluoronaphthalen-1-Yl)-1-Fluoro-5-Methyl-12-((Tetrahydrospiro[Cyclopropane-1,3′-Pyrrolizin]-7a′ (5′H)-Yl)Methoxy)-5a,6,7,8,9,10-Hexahydro-5H-4-Oxa-3,10a,11,13,14-Pentaaza-6,9-Methanonaphtho[1,8-Ab]Heptalene]	91.9	254	201	–	–	–
C#Cc1c(F)ccc2cccc(-c3nc4c5c(nc(OC[C@@]67CCCN6C[C@H](F)C7)nc5c3F)N3C[C@H]5CC[C@H](N5)[C@H]3[C@H](C)O4)c12 [Example Z632, (5S,5aS,6S,9R)-2-(8-Ethynyl-7-Fluoronaphthalen-1-Yl)-1-Fluoro-12-(((2R,7aS)-2-Fluorotetrahydro-1H-Pyrrolizin-7a (5H)-Yl)Methoxy)-5-Methyl-5a,6,7,8,9,10-Hexahydro-5H-4-Oxa-3,10a,11,13,14-Pentaaza-6,9-Methanonaphtho[1,8-Ab]Heptalene]	30.4	53.8	26.2	–	–	–
C#Cc1c(F)ccc2cccc(-c3nc4c5c(nc(OCC67CC(=C)CN6C[C@H](F)C7)nc5c3F)N3C[C@H]5CC[C@H](N5)[C@H]3[C@H](C)O4)c12 (stereo partly drawn) [Example Z633, (5S,5aS,6S,9R)-2-(8-ethynyl-7-fluoronaphthalen-1-yl)-1-fluoro-12-(((2R)-2-fluoro-6-methylenetetrahydro-1H-pyrrolizin-7a (5H)-yl)methoxy)-5-methyl-5a,6,7,8,9,10-hexahydro-5H-4-oxa-3,10a,11,13,14-pentaaza-6,9-methanonaphtho[1,8-ab]heptalene]	14.5	56.7	59	–	–	–
C#Cc1c(F)ccc2cccc(-c3nc4c5c(nc(OCC67CC8CC8N6CCC7=C)nc5c3F)N3C[C@H]5CC[C@H](N5)[C@H]3[C@H](C)O4)c12 (stereo partly drawn) [Example Z635, (5S,5aS,6S,9R)-2-(8-ethynyl-7-fluoronaphthalen-1-yl)-1-fluoro-5-methyl-12-((5-methylenehexahydrocyclopropa[b]pyrrolizin-5a (3H)-yl)methoxy)-5a,6,7,8,9,10-hexahydro-5H-4-oxa-3,10a, 11,13,14-pentaaza-6,9-methanonaphtho[1,8-ab]heptalene]	50	218	224	–	–	–
C#Cc1c(F)ccc2cccc(-c3nc4c5c(nc(OC[C@@]67CCCN6CC(=C)C7)nc5c3F)N3C[C@H]5CC[C@H](N5)[C@H]3[C@H](C)O4)c12 [Example Z637, (5S,5aS,6S,9R)-2-(8-ethynyl-7-fluoronaphthalen-1-yl)-1-fluoro-5-methyl-12-(((S)-2-methylenetetrahydro-1H-pyrrolizin-7a (5H)-yl)methoxy)-5a,6,7,8,9,10-hexahydro-5H-4-oxa-3,10a,11,13,14-pentaaza-6,9-methanonaphtho[1,8-ab]heptalene]	48.8	112	67.6	–	–	–
C#Cc1c(F)ccc2cccc(-c3nc4c5c(nc(OC[C@@]67CCCN6CCC7=C)nc5c3F)N3C[C@H]5CC[C@H](N5)[C@H]3[C@H](C)O4)c12 [Example Z639, (5S,5aS,6S,9R)-2-(8-ethynyl-7-fluoronaphthalen-1-yl)-1-fluoro-5-methyl-12-(((S)-1-methylenetetrahydro-1H-pyrrolizin-7a (5H)-yl)methoxy)-5a,6,7,8,9,10-hexahydro-5H-4-oxa-3,10a, 11, 13,14-pentaaza-6,9-methanonaphtho[1,8-ab]heptalene]	33.4	93.7	113	–	–	–
C#Cc1c(F)ccc2cccc(-c3nc4c5c(nc(OC[C@]67CCCN6CCC7=C)nc5c3F)N3C[C@H]5CC[C@H](N5)[C@H]3[C@H](C(F)F)O4)c12 [Example Z648, (5R,5aS,6S,9R)-5-(difluoromethyl)-2-(8-etbynyl-7-fluoronaphthalen-1-yl)-1-fluoro-12-(((R)-1-methylenetetrahydro-1H-pyrrolizin-7a (5H)-yl)methoxy)-5a,6,7,8,9,10-hexahydro-5H-4-oxa-3,10a, 11,13,14-pentaaza-6,9-methanonaphtho[1,8-ab]heptalene]	–	–	–	14.6	53.5	39.1
C#Cc1c(F)ccc2cccc(-c3nc4c5c(nc(OCC67CC(=C)CN6C[C@H](F)C7)nc5c3F)N3C[C@H]5CC[C@H](N5)[C@H]3[C@H](CO)O4)c12 (stereo partly drawn) [Example Z654, ((5R,5aS,6S,9R)-2-(8-ethynyl-7-fluoronaphthalen-1-yl)-1-fluoro-12-(((2R)-2-fluoro-6-methylenetetrahydro-1H-pyrrolizin-7a (5H)-yl)methoxy)-5a,6,7,8,9,10-hexahydro-5H-4-oxa-3,10a,11,13,14-pentaaza-6,9-methanonaphtho[1,8-ab]heptalen-5-yl)methanol]	136	389	726	–	–	–
C#Cc1c(F)ccc2cccc(-c3nc4c5c(nc(OCC67CC(O)CN6CCC7=C)nc5c3F)N3C[C@H]5CC[C@H](N5)[C@H]3[C@H](C)O4)c12 (stereo partly drawn) [Example Z674, 7a-((((5S,5aS,6S,9R)-2-(8-ethynyl-7-fluoronaphthalen-1-yl)-1-fluoro-5-methyl-5a,6,7,8,9,10-hexahydro-5H-4-oxa-3,10a, 11, 13, 14-pentaaza-6,9-methanonaphtho[1,8-ab]heptalen-12-yl)oxy)methyl)-7-methylenehexahydro-1H-pyrrolizin-2-ol]	10.7	475	108	–	–	–
C#Cc1c(F)ccc2cccc(-c3nc4c5c(nc(OCC67C[C@@H](F)CN6CCC7=C)nc5c3F)N3C[C@H]5CC[C@H](N5)[C@H]3[C@H](C)O4)c12 (stereo partly drawn) [Example Z675, (5S,5aS,6S,9R)-2-(8-ethynyl-7-fluoronaphthalen-1-yl)-1-fluoro-12-(((6R)-6-fluoro-1-methylenetetrahydro-1H-pyrrolizin-7a (5H)-yl)methoxy)-5-methyl-5a,6,7,8,9,10-hexahydro-5H-4-oxa-3,10a,11,13,14-pentaaza-6,9-methanonaphtho[1,8-ab]heptalene]	11.1	31.2	31.2	–	–	–
C#Cc1cccc2cccc(-c3nc4c5c(nc(OC[C@]67CCCN6CCC7=C)nc5c3F)N3C[C@H]5CC[C@H](N5)[C@H]3[C@H](C)O4)c12 [Example Z677, (5S,5aS,6S,9R)-2-(8-ethynylnaphthalen-1-yl)-1-fluoro-5-methyl-12-(((R)-1-methylenetetrahydro-1H-pyrrolizin-7a (5H)-yl)methoxy)-5a,6,7,8,9,10-hexahydro-5H-4-oxa-3,10a,11,13,14-pentaaza-6,9-methanonaphtho[1,8-ab]heptalene]	185	981	795	–	–	–
